Like-named read-outs stand apart in the source and are kept apart here.
What was measured:
Abeta 1-x = assay: In vivo inhibition of beta-secretase, brain Abeta 1-x in PDAPP mice; details: young female PDAPP mice, three hours after dosing, vs vehicle
Source text: Several animal models, including mouse, guinea pig, dog, and monkey, may be used to screen for inhibition of beta-secretase activity in vivo following compound treatment. Animals used in this invention can be wild type, transgenic, or gene knockout animals. For example, the PDAPP mouse model, prepared as described in Games et al., Nature 373, 523-527 (1995), and other non-transgenic or gene knockout animals are useful to analyze in vivo inhibition of Abeta and sAPPbeta production in the presence of inhibitory compounds. Generally, 2 month old PDAPP mice, gene knockout mice or non-transgenic animals are administered compound formulated in vehicles, such as corn oil, beta-cyclodextran, phosphate buffers, PHARMASOLVE®, or other suitable vehicles via oral, subcutaneous, intra-venous, feeding, or other route of administration. One to twenty-four hours following the administration of compound, animals are sacrificed, and brains are removed for analysis of Abeta 1-x. “Abeta 1-x” as used herein refers to the sum of Abeta species that begin with residue 1 and end with a C-terminus greater than residue 28. This detects the majority of Abeta species and is often called “total Abeta”. Total Abeta peptides (Abeta 1-x) levels are measured by a sandwich ELISA, using monoclonal 266 as a capture antibody and biotinylated 3D6 as reporting antibody. (See May, et al., Journal of Neuroscience, 31, 16507-16516 (2011)).
For acute studies, compound or appropriate vehicle is administered and animals are sacrificed at about 3 hours after dosing. Brain tissue, is obtained from selected animals and analyzed for the presence of Abeta 1-x. After chronic dosing brain tissues of older APP transgenic animals may also be analyzed for the amount of beta-amyloid plaques following compound treatment.
For example, a 3, 10, and 30 mg/kg oral dose of Example 1, to young female PDAPP mice reduced Abeta 1-x peptide levels in brain hippocampus by 23% (non-significant), 43% (p<0.05), and 58% (p<0.01), respectively.

[1] = tested on: BACE1 activity in SH-SY5YAPP695Wt cells; assay: SH-SY5YAPP695Wt whole cell assay (Abeta 1-40 / 1-42 ELISA); format: cell-based; details: Homo sapiens, Mean ± SEM, n = 4, 24 hours incubation
Description: (§1) To assess selectivity of BACE1 over BACE2, the test compound is evaluated in FRET-based enzymatic assays using specific substrates for BACE1 and BACE2 as described below. For in vitro enzymatic and cellular assays, the test compound is prepared in DMSO to make up a 10 mM stock solution. The stock solution is serially diluted in DMSO to obtain a ten-point dilution curve with final compound concentrations ranging from 10 μM to 0.05 nM in a 96-well round-bottom plate before conducting the in vitro enzymatic and whole cell assays.
The routine whole cell assay for the measurement of inhibition of BACE1 activity utilizes the human neuroblastoma cell line SH-SY5Y (ATCC Accession No. CRL2266) stably expressing a human APP695Wt cDNA. Cells are routinely used up to passage number 6 and then discarded.
SH-SY5YAPP695Wt cells are plated in 96 well tissue culture plates at 5.0×10^4 cells/well in 200 μL culture media (50% MEM/EBSS and Ham's F12, 1× each sodium pyruvate, non-essential amino acids and Na bicarbonate containing 10% FBS). The following day, media is removed from the cells, fresh media added then incubated at 37° C. for 24 hours in the presence/absence of test compound at the desired concentration range.
At the end of the incubation, conditioned media are analyzed for evidence of beta-secretase activity by analysis of Abeta peptides 1-40 and 1-42 by specific sandwich ELISAs. […]

human BACE2 (1-460):Fc = target: T1, human BACE2 (1-460):Fc (Homo sapiens, UniProt Q9Y5Z0); assay: BACE2 TMEM27 FRET assay; format: biochemical
T1 construct: made in house; host or cells: HEK293 (transient, secreted into conditioned media, Protein A purified)
T1 sequence (Q9Y5Z0 21-460): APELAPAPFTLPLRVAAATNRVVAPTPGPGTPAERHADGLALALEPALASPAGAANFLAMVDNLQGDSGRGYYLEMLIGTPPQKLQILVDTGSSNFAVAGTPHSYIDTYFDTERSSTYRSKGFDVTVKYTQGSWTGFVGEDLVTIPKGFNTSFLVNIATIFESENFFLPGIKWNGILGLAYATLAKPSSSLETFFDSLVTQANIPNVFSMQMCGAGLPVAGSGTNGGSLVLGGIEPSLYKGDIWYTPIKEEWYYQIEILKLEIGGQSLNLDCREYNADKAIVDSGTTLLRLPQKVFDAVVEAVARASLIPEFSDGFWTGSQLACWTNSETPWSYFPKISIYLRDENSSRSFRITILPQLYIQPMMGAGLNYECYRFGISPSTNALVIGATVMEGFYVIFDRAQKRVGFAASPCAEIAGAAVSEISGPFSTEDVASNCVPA
Description: as §1
Human BACE1 (accession number: AF190725) and human BACE2 (accession number: AF 204944) are cloned from total brain cDNA by RT-PCR. […]
Conditioned media of HEK293 cell transiently transfected with huBACE1:Fc or huBACE2:Fc cDNA are collected. […] The purity of final product is assessed by electrophoresis in 4-20% Tris-Glycine SDS-PAGE. […]
Transmembrane protein 27 (TMEM27) (Accession Number NM_020665), also known as Collectrin) is a recently described substrate for BACE2, but not BACE1 (Esterhazy, et al, Cell Metabolism, 14, 365-377 (2011)). […] The RFU of the mixture at time 0 is recorded at excitation wavelength 430 nm and emission wavelength 535 nm. […] The RFU at the end of incubation is recorded with the same excitation and emission settings used at time 0. […]

CC(F)(F)[C@H]1OC[C@]2(c3cc(NC(=O)c4cnc(-n5cncn5)cn4)ccc3F)N=C(N)SC[C@H]12 [Example 1, N-[3-[(4aS,5S,7aS)-2-Amino-5-(1,1-difluoroethyl)-4,4a,5,7-tetrahydrofuro[3,4-d][1,3]thiazin-7a-yl]-4-fluoro-phenyl]-5-(1,2,4-triazol-1-yl)pyrazine-2-carboxamide]
reduction of Abeta 1-x peptide levels in brain hippocampus (Abeta 1-x; 3 mg/kg oral, non-significant): 23%
reduction of Abeta 1-x levels in brain cortical tissue (Abeta 1-x; 3 mg/kg oral, p<0.01): 43%
reduction of Abeta 1-x levels in brain cortical tissue (Abeta 1-x; 10 mg/kg oral, p<0.01): 59%
reduction of Abeta 1-x peptide levels in brain hippocampus (Abeta 1-x; 10 mg/kg oral, p<0.05): 43%
reduction of Abeta 1-x levels in brain cortical tissue (Abeta 1-x; 30 mg/kg oral, p<0.01): 73%
reduction of Abeta 1-x peptide levels in brain hippocampus (Abeta 1-x; 30 mg/kg oral, p<0.01): 58%
IC50 ([1]; read-out: SH-SY5YAPP695Wt A-beta (1-40) ELISA IC50): 0.385 ± 0.163 nM
IC50 ([1]; read-out: SH-SY5YAPP695Wt A-beta (1-42) ELISA IC50): 0.381 ± 0.266 nM
BACE2 IC50 / BACE1 IC50 ratio (fold selectivity for BACE1 over BACE2) (human BACE2 (1-460):Fc): about 400 fold

Reference: patent publication US20190365774A1, “COMBINATION THERAPY OF BACE-1 INHIBITOR AND ANTI-N3PGLU ABETA ANTIBODY” (Eli Lilly and Company, priority 2016, published 2019)
